Measured values as given in ChEMBL document CHEMBL1821597, “Copper-mediated nuclease activity of jadomycin B” (Bioorg Med Chem, 2011).
Active and inactive are the calls of the source. No cut-off for these calls is given here.

Key:
Nucleic Acid [1] = assay: Binding affinity at calf thymus DNA at 10 uM by UV-Vis spectrophotometer; type: nucleic-acid assay; details: Bos taurus
Nucleic Acid [2] = assay: Induction of single strand cleavage in supercoiled pDesR3 DNA at 10 uM after 3 hrs by agarose gel electrophoresis in presence of equimolar Cu(OAc)2 and NaN3; type: nucleic-acid assay
Nucleic Acid [3] = assay: Induction of single strand cleavage in supercoiled pDesR3 DNA at 10 uM after 3 hrs by agarose gel electrophoresis in presence of equimolar Cu(OAc)2 and catalase; type: nucleic-acid assay
Nucleic Acid [4] = assay: Induction of supercoiled pDesR3 DNA cleavage at 10 uM after 2 to 12 hrs by agarose gel electrophoresis; type: nucleic-acid assay
Nucleic Acid [5] = assay: Induction of single strand cleavage in laser-enhanced supercoiled pDesR3 DNA assessed as reduction in time required for single-strand break at 10 uM after 5 mins by agarose gel electrophoresis relative to control in presence of equimolar Cu(OAc)2; type: nucleic-acid assay; design: scale not given: the % may be the effect or the level left
Nucleic Acid [6] = assay: Induction of supercoiled pDesR3 DNA cleavage after 2 to 12 hrs by agarose gel electrophoresis; type: nucleic-acid assay
Nucleic Acid [7] = assay: Induction of single strand cleavage in supercoiled pDesR3 DNA at 10 uM after 3 hrs by agarose gel electrophoresis in presence of equimolar Cu(OAc)2 and DMSO; type: nucleic-acid assay
Nucleic Acid [8] = assay: Induction of single strand cleavage in supercoiled pDesR3 DNA at 10 uM after 3 hrs by agarose gel electrophoresis in presence of equimolar Cu(OAc)2 and SOD; type: nucleic-acid assay
T47D = assay: Cytotoxicity against human T47D cells; type: functional, cell-based
Nucleic Acid [9] = assay: Induction of single strand cleavage in supercoiled pDesR3 DNA at 10 uM after 3 hrs by agarose gel electrophoresis in presence of equimolar Cu(OAc)2 and EDTA; type: nucleic-acid assay
MDA-MB-435 = assay: Cytotoxicity against human MDA-MB-435 cells; type: functional, cell-based
Nucleic Acid [10] = assay: Induction of supercoiled pDesR3 DNA cleavage assessed as half life of DNA cleavage after 2 to 12 hrs by agarose gel electrophoresis; type: nucleic-acid assay
Nucleic Acid [11] = assay: Induction of double strand cleavage in supercoiled pDesR3 DNA at 10 uM after 2 to 12 hrs by agarose gel electrophoresis in presence of equimolar Cu(OAc)2; type: nucleic-acid assay
Nucleic Acid [12] = assay: Induction of single strand cleavage in supercoiled pDesR3 DNA at 10 uM after 2 to 12 hrs by agarose gel electrophoresis in presence of equimolar Cu(OAc)2; type: nucleic-acid assay
Nucleic Acid [13] = assay: Induction of single strand cleavage in supercoiled pDesR3 DNA at 10 uM after 3 hrs by agarose gel electrophoresis in presence of equimolar Cu(OAc)2 and t-BuOH; type: nucleic-acid assay

With `CC[C@H](C)[C@H]1C(=O)O[C@H]2c3cc(C)cc(O)c3C3=C(C(=O)c4c(O[C@H]5C[C@@H](O)[C@@H](O)[C@H](C)O5)cccc4C3=O)N12` [JADOMYCIN B] the Activity (Nucleic Acid [1]) was “inactive”, the Activity (Nucleic Acid [2]) was “inactive” and the Activity (Nucleic Acid [3]) was “inactive”. For the same compound, the Activity (Nucleic Acid [4]) was “inactive”, the Activity (Nucleic Acid [5]) was 98% and the EC50 (Nucleic Acid [6]) was 1.7 µM. The Activity (Nucleic Acid [7]) was “inactive”, the Activity (Nucleic Acid [8]) was “inactive” and the EC50 (T47D) was 9.92 µM. For the same compound, the Activity (Nucleic Acid [9]) was “inactive”, the EC50 (MDA-MB-435) was 6.89 µM and the T1/2 (Nucleic Acid [10]) was 45 min. The Activity (Nucleic Acid [11]) was “inactive”, the Activity (Nucleic Acid [12]) was “Active” and the Activity (Nucleic Acid [13]) was “inactive”.
